Like-named read-outs stand apart in the source and are kept apart here.
How the values were obtained:
[1] = Pharmacokinetic study in rats after oral administration of FA decoction; type: in vivo, Sprague-Dawley rats; conditions: for detection in rat plasma: even after orally administering 30 g/kg FA decoction; for Cmax / AUC(0-t) / Tmax / MRT last / half-life: male, Sprague-Dawley, rat plasma; for AUC(0-t): last dose day 8, plasma treated with β-glucuronidase; for MRT last: read-out: MRT(0–t); for half-life: read-out: t 1/2z (converted); for AUC(0–t) elevation, 30 g/kg compared with the 15 g/kg group / C max elevation, 30 g/kg compared with the 15 g/kg group: rat, oral FA decoction
Description: 16 male Sprague-Dawley (SD) rats weighing 200 ± 20 g were from experimental animal center of Central South University and fostered in an environmentally controlled room (temperature: 22–26°C, humidity: 40–60%, and 12 h dark-light cycle) for 1 week before the experiment. All experimental procedures were implemented strictly according to the guidelines of the Animal Care and Use Committee, Central South University, China. This research was approved by the Animal Ethics Committee of Central South University. Rats were randomly divided into 2 groups (n=8): low-dose group (15 g/kg FA decoction) and high-dose group (30 g/kg FA decoction). The two groups were given by gavage twice a day for 7 days in succession. At the 7th day of medication, the rats were prohibited feeding for about 12 hours without restriction of water. On day 8, the rats were orally administered for the last time at 8 am, and then plasma samples (0.5 mL) were collected from the caudal vein at 5, 10, 20, 30, 60, 90, 240, 360, 480, and 600 min into heparinized vacuum tubes, followed by centrifugation at 3500 rpm (4°C) for 10 min. Then, the plasmas were obtained and immediately stored at −20°C until analysis. During the experiment, the rats were injected intraperitoneally with physiological saline for maintaining fluid balance.
(§1) Standard stock solutions were prepared by dissolving reference standards in methanol to yield concentrations of 198 µg/mL for meranzin hydrate, 128 µg/mL for naringenin, 273 µg/mL for hesperetin, and 4.56 µg/mL for SMZ. All solutions were stored at 4°C. QC samples were prepared at three concentration levels containing meranzin hydrate (6.5, 206, 3300 ng/mL), naringenin (13.9, 222, 3555 ng/mL), and hesperetin (3.7, 29.5, 236 ng/mL). Plasmas (100 µL) were spiked with β-glucuronidase (5 µL) and acetic acid buffer solution (10 µL), subsequently vortexed for 10 seconds, and incubated for 4 h at 37°C. Then, SMZ (50 µL) and methanol (135 µL) were added, ultrasound was done for 10 min, and centrifugation at 12000 rpm (4°C) for 10 min was performed. The supernatant (50 µL) was transferred, distilled water (50 µL) was added, then ultrasound and centrifugation again. At last, the supernatant of 5 µL was injected into UPLC.
The database was set up with the SPSS 17.0 software package from SPSS Inc., Chicago, Illinois (US). Differences between the two groups were analyzed by one-way analysis of variance. A two-tailed P value of <0.05 was considered statistically significant. The DAS 3.2.8 pharmacokinetic program (Chinese Pharmacological Society) was used to process pharmacokinetic parameters.
The validated method was applied to determine the plasma concentrations of meranzin hydrate, naringenin, and hesperetin in rats after oral administration of FA decoction at a dose of 15 g/kg and 30 g/kg body weight. The mean plasma concentration-time profiles of meranzin hydrate, naringenin, and hesperetin are shown in Figure 4, and the estimated pharmacokinetic parameters are illustrated in Table 5. According to DAS software, the optimal metabolism process of the 3 components in rats could be depicted as a two-compartment pharmacokinetic model.

[2] = Stability of the analytical solution of FA decoction at environmental temperature; type: physicochemical; conditions: FA decoction 1.7 g/mL
Description: The raw herb (200 g) was immersed in distilled water (1 : 8, w/v) for 0.5 h at room temperature and thereafter was boiled for 0.5 h. The filtrate was collected, and the residue was boiled again in distilled water (1 : 6, w/v) for 0.5 h. The filtrates were mixed together, filtered through a 0.45 µm porous filtration membrane, then farther concentrated in the rotary evaporator to a final concentration equivalent to 1.7 g/mL FA, and stored at −20°C until analyzed. In the experiment, FA decoction (100 µL) was precisely measured, 900 µL methanol was added, then ultrasound was done for 5 min, and it was centrifuged at 15000 rpm (4°C) for 10 min; the supernatant liquor (20 µL) was shifted to a 1.5 mL EP tube, methanol-water (780 µL) was added, and ultrasound was performed, and it was centrifuged at 15000 rpm (4°C) for 10 min again. Finally, 5 µL of the supernatant liquor was injected into the apparatus for detection.
The stability of the analytical solution at environmental temperature was studied by detecting sample solution at 0, 2, 4, 8, 12, and 24 h. The RSD values of peak areas were taken for assessment.

[3] = Stability of QC samples in rat plasma (short-term, freeze-thaw, long-term); type: in vitro ADME; conditions: for Short-term stability, Mean ± SD: room temperature for 4 h; for Freeze-thaw stability, Mean ± SD: three freeze (−20°C) and thaw cycles; for Long-term stability, Mean ± SD: −20°C for 20 days
Description: as §1
(5) Stability. QC plasma samples of each concentration at low, medium, and high levels were detected. The freeze and thaw stability were investigated after three freeze (−20°C) and thaw (room temperature) cycles on consecutive days. Long-term stability was studied by storing QC samples at −20°C for 20 days. Short-term stability was assessed by analyzing QC samples kept at room temperature for 4 h.

[4] = oral FA decoction 15 g/kg twice a day for 7 days, n=8
[5] = oral FA decoction 30 g/kg twice a day for 7 days, n=8
[6] = high level (spiked 3300.0 / 3555.0 / 236.0 ng/mL)
[7] = low level (spiked 6.5 / 13.9 / 3.7 ng/mL)
[8] = medium level (spiked 206.0 / 222.0 / 29.5 ng/mL)

Compound | detection in rat plasma [1] | Stability in FA decoction, Content ([2]; 0h) [mg/mL] | Stability in FA decoction, Content ([2]; 2h) [mg/mL] | Stability in FA decoction, Content ([2]; 4h) [mg/mL] | Stability in FA decoction, Content ([2]; 8h) [mg/mL] | Stability in FA decoction, Content ([2]; 12h) [mg/mL] | Stability in FA decoction, Content ([2]; 24h) [mg/mL] | AUC(0-t) [1, 4] [µg·h/mL] | Cmax ([1]; oral FA decoction 15 g/kg, n=8) [µg/mL] | Tmax ([1]; oral FA decoction 15 g/kg, n=8) [h] | MRT last ([1]; oral FA decoction 15 g/kg, n=8) [h] | half-life ([1]; oral FA decoction 15 g/kg, n=8) [h] | AUC(0-t) [1, 5] [µg·h/mL] | Cmax ([1]; oral FA decoction 30 g/kg, n=8) [µg/mL] | Tmax ([1]; oral FA decoction 30 g/kg, n=8) [h] | MRT last ([1]; oral FA decoction 30 g/kg, n=8) [h] | half-life ([1]; oral FA decoction 30 g/kg, n=8) [h] | AUC(0–t) elevation, 30 g/kg compared with the 15 g/kg group [1] [fold] | C max elevation, 30 g/kg compared with the 15 g/kg group [1] [fold] | Short-term stability, Mean ± SD [3, 6] [ng/mL] | also measured
COc1ccc([C@@H]2CC(=O)c3c(O)cc(O)cc3O2)cc1O [Hesperetin, hesperetin] |  | 0.19 | 0.19 | 0.18 | 0.18 | 0.19 | 0.18 | 0.508 ± 0.088 | 0.0839 ± 0.0142 | 1 ± 0.38 | 4.27 ± 0.27 | 8.05 ± 3.1 | 0.955 ± 0.227 | 0.174 ± 0.039 | 1.31 ± 0.26 | 4.15 ± 0.35 | 6.56 ± 3.35 | 1.88 | 2.08 | 234.18 ± 22.13 | Cmax ([1]; oral, 15 g/kg group): 0.0839 ± 0.0142 µg/mL; Cmax ([1]; oral, 30 g/kg group): 0.174 ± 0.039 µg/mL; Freeze-thaw stability, Mean ± SD [3, 6]: 235.03 ± 19.71 ng/mL; Long-term stability, Mean ± SD [3, 6]: 235.66 ± 14.53 ng/mL; Short-term stability, Mean ± SD [3, 7]: 3.63 ± 0.87 ng/mL; Freeze-thaw stability, Mean ± SD [3, 7]: 3.52 ± 0.43 ng/mL; Long-term stability, Mean ± SD [3, 7]: 3.67 ± 0.57 ng/mL; Short-term stability, Mean ± SD [3, 8]: 27.88 ± 3.50 ng/mL; Freeze-thaw stability, Mean ± SD [3, 8]: 28.35 ± 4.03 ng/mL; Long-term stability, Mean ± SD [3, 8]: 28.28 ± 1.65 ng/mL
COc1ccc2ccc(=O)oc2c1C[C@@H](O)C(C)(C)O [Meranzin hydrate, meranzin hydrate] |  | 0.34 | 0.36 | 0.33 | 0.34 | 0.35 | 0.34 | 1.53 ± 0.252 | 0.505 ± 0.0643 | 1 ± 0.27 | 2.77 ± 0.34 | 2.67 ± 0.81 | 7.37 ± 0.887 | 1.83 ± 0.221 | 1.25 ± 0.27 | 3.21 ± 0.22 | 2.23 ± 0.59 | 4.8 | 3.62 |  | 
O=C1C[C@@H](c2ccc(O)cc2)Oc2cc(O)cc(O)c21 [Naringenin, naringenin] |  | 0.27 | 0.26 | 0.26 | 0.26 | 0.26 | 0.25 | 3.66 ± 0.861 | 0.694 ± 0.208 | 1.13 ± 0.35 | 4.06 ± 0.33 | 8.59 ± 9.25 | 11.2 ± 1.41 | 2.58 ± 0.388 | 0.81 ± 0.26 | 3.89 ± 0.21 | 5.67 ± 2.9 | 3.05 | 3.72 | 3549.93 ± 455.39 | Freeze-thaw stability, Mean ± SD [3, 6]: 3552.68 ± 409.74 ng/mL; Long-term stability, Mean ± SD [3, 6]: 3550.10 ± 450.62 ng/mL; Short-term stability, Mean ± SD [3, 7]: 13.03 ± 2.28 ng/mL; Freeze-thaw stability, Mean ± SD [3, 7]: 13.44 ± 4.79 ng/mL; Long-term stability, Mean ± SD [3, 7]: 13.32 ± 5.05 ng/mL; Short-term stability, Mean ± SD [3, 8]: 217.05 ± 22.66 ng/mL; Freeze-thaw stability, Mean ± SD [3, 8]: 219.51 ± 35.50 ng/mL; Long-term stability, Mean ± SD [3, 8]: 220.06 ± 34.22 ng/mL

Second part, led by results:

detection in rat plasma [1] | Stability in FA decoction, Content ([2]; 0h) [mg/mL] | Stability in FA decoction, Content ([2]; 2h) [mg/mL] | Stability in FA decoction, Content ([2]; 4h) [mg/mL] | Stability in FA decoction, Content ([2]; 8h) [mg/mL] | Stability in FA decoction, Content ([2]; 12h) [mg/mL] | Stability in FA decoction, Content ([2]; 24h) [mg/mL] | AUC(0-t) [1, 4] [µg·h/mL] | Cmax ([1]; oral FA decoction 15 g/kg, n=8) [µg/mL] | Tmax ([1]; oral FA decoction 15 g/kg, n=8) [h] | MRT last ([1]; oral FA decoction 15 g/kg, n=8) [h] | half-life ([1]; oral FA decoction 15 g/kg, n=8) [h] | AUC(0-t) [1, 5] [µg·h/mL] | Cmax ([1]; oral FA decoction 30 g/kg, n=8) [µg/mL] | Tmax ([1]; oral FA decoction 30 g/kg, n=8) [h] | MRT last ([1]; oral FA decoction 30 g/kg, n=8) [h] | half-life ([1]; oral FA decoction 30 g/kg, n=8) [h] | AUC(0–t) elevation, 30 g/kg compared with the 15 g/kg group [1] [fold] | C max elevation, 30 g/kg compared with the 15 g/kg group [1] [fold] | Short-term stability, Mean ± SD [3, 6] [ng/mL] | Compound | also measured
could not been detected | 25.24 | 25.35 | 24.92 | 25.45 | 24.98 | 25.15 |  |  |  |  |  |  |  |  |  |  |  |  |  | C[C@@H]1O[C@@H](O[C@H]2[C@H](Oc3cc(O)c4c(c3)O[C@H](c3ccc(O)cc3)CC4=O)O[C@H](CO)[C@@H](O)[C@@H]2O)[C@H](O)[C@H](O)[C@H]1O [naringin] | 
could not been detected | 14.33 | 14.28 | 13.98 | 14.40 | 14.11 | 14.08 |  |  |  |  |  |  |  |  |  |  |  |  |  | COc1ccc([C@@H]2CC(=O)c3c(O)cc(O[C@@H]4O[C@H](CO)[C@@H](O)[C@H](O)[C@H]4O[C@@H]4O[C@@H](C)[C@H](O)[C@@H](O)[C@H]4O)cc3O2)cc1O [neohesperidin] | 
could not been detected | 4.95 | 4.83 | 4.71 | 5.02 | 4.87 | 4.82 |  |  |  |  |  |  |  |  |  |  |  |  |  | COc1ccc([C@@H]2CC(=O)c3c(O)cc(O[C@@H]4O[C@H](CO[C@@H]5O[C@@H](C)[C@H](O)[C@@H](O)[C@H]5O)[C@@H](O)[C@H](O)[C@H]4O)cc3O2)cc1O [hesperidin] | 
